Assay results published in patent publication US6706663B2, “Herbicidal 3-heterocyclic substituted benzisothiazole and benzisoxazole compounds” (Wyeth, priority 2000, dated 2004).

What was measured:
[1] = tested on: ABUTH (Abutilon theophrasti); experiment: Postemergence herbicidal evaluation; assay type: in vivo, Medic.
Procedure, shortened: (§1)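 Seedlings grown for about two weeks were sprayed postemergence and then kept under standard greenhouse care. Injury was rated visually 4–5 weeks after treatment on a 0–9 scale against untreated controls, and ratings from repeat tests were averaged.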

[2] = tested on: AMBEL (Ambrosia artemisifolia); experiment: Postemergence herbicidal evaluation; assay type: in vivo, L.
Procedure, shortened: as §1

[3] = tested on: CASOB (Cassia obtusifolia); experiment: Postemergence herbicidal evaluation; assay type: in vivo, L.
Procedure, shortened: as §1

[4] = tested on: CHEAL (Chenopodium album); experiment: Postemergence herbicidal evaluation; assay type: in vivo, L.
Procedure, shortened: as §1

GALAP (Galium aparine) = experiment: Postemergence herbicidal evaluation; assay type: in vivo
Procedure, shortened: as §1

[5] = tested on: IPOHE (Ipomoea hederacea); experiment: Postemergence herbicidal evaluation; assay type: in vivo, (L.) Jacq.
Procedure, shortened: as §1

[6] = tested on: GLXMAW (Soybean, Williams); experiment: Postemergence herbicidal evaluation; assay type: in vivo, Glycine max, (L.) Merr. cv Williams
Procedure, shortened: as §1

ORYSAT (Rice, Tebonnet) [7] = experiment: Postemergence herbicidal evaluation; assay type: in vivo, Oryza sativa, (L.) Tebonnet
Procedure, shortened: as §1

ZEAMX (Corn, Field) = experiment: Postemergence herbicidal evaluation; assay type: in vivo, Zea mays, L.
Procedure, shortened: as §1

[8] = tested on: ECHCG (Echinochloa crus-galli); experiment: Preemergence herbicidal evaluation; assay type: in vivo, (L.) Beau; conditions: rated 4-5 weeks after treatment
Procedure, shortened: (§2)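 Each species was sown separately in potting soil over roughly one inch of soil, and the surface sprayed with compound dissolved in aqueous acetone. Assessment used a 0–9 visual scale against a control after four to five weeks.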

SETVI (Setaria viridis) = experiment: Preemergence herbicidal evaluation; assay type: in vivo, (L.) Beau; conditions: rated 4-5 weeks after treatment
Procedure, shortened: as §2

ORYSAT (Rice, Tebonnet) [9] = experiment: Preemergence herbicidal evaluation; assay type: in vivo, Oryza sativa, (L.) Tebonnet; conditions: rated 4-5 weeks after treatment
[10] = tested on: TRZAWR (Wheat, Winter, cv Riband); experiment: Preemergence herbicidal evaluation; assay type: in vivo, Triticum aestivum; conditions: rated 4-5 weeks after treatment
Procedure, shortened: as §2

## Cc1csc(-c2nsc3ccc(-n4c(=O)cc(C(F)(F)F)n(C)c4=O)cc23)n1 [Compound 7, 1-methyl-3-[3-(4-methyl-2-thiazolyl)-1,2-benzisothiazol-5-yl]-6-(trifluoromethyl)uracil]
[1]; rate 0.0320 kg/ha
  Postemergence herbicidal rating, ABUTH: 9.0
[1]; rate 0.0620 kg/ha
  Postemergence herbicidal rating, ABUTH: 9.0
[1]; rate 0.1250 kg/ha
  Postemergence herbicidal rating, ABUTH: 9.0
[2]; rate 0.0320 kg/ha
  Postemergence herbicidal rating, AMBEL: 2.0
[2]; rate 0.0620 kg/ha
  Postemergence herbicidal rating, AMBEL: 4.0
[2]; rate 0.1250 kg/ha
  Postemergence herbicidal rating, AMBEL: 9.0
[3]; rate 0.0320 kg/ha
  Postemergence herbicidal rating, CASOB: 0.0
[3]; rate 0.0620 kg/ha
  Postemergence herbicidal rating, CASOB: 0.0
[3]; rate 0.1250 kg/ha
  Postemergence herbicidal rating, CASOB: 3.0
[4]; rate 0.0320 kg/ha
  Postemergence herbicidal rating, CHEAL: 4.0
[4]; rate 0.0620 kg/ha
  Postemergence herbicidal rating, CHEAL: 4.0
[4]; rate 0.1250 kg/ha
  Postemergence herbicidal rating, CHEAL: 9.0
GALAP (Galium aparine); rate 0.0320 kg/ha
  Postemergence herbicidal rating, GALAP: 2.0
GALAP (Galium aparine); rate 0.0620 kg/ha
  Postemergence herbicidal rating, GALAP: 9.0
GALAP (Galium aparine); rate 0.1250 kg/ha
  Postemergence herbicidal rating, GALAP: 7.0
[5]; rate 0.0320 kg/ha
  Postemergence herbicidal rating, IPOHE: 2.0
[5]; rate 0.0620 kg/ha
  Postemergence herbicidal rating, IPOHE: 9.0
[5]; rate 0.1250 kg/ha
  Postemergence herbicidal rating, IPOHE: 9.0
[6]; rate 0.0320 kg/ha
  Postemergence herbicidal rating, GLXMAW: 5.0
[6]; rate 0.0620 kg/ha
  Postemergence herbicidal rating, GLXMAW: 5.0
[6]; rate 0.1250 kg/ha
  Postemergence herbicidal rating, GLXMAW: 5.5
ORYSAT (Rice, Tebonnet) [7]; rate 0.0320 kg/ha
  Postemergence herbicidal rating, ORYSAT: 4.5
ORYSAT (Rice, Tebonnet) [7]; rate 0.0620 kg/ha
  Postemergence herbicidal rating, ORYSAT: 5.0
ORYSAT (Rice, Tebonnet) [7]; rate 0.1250 kg/ha
  Postemergence herbicidal rating, ORYSAT: 7.0
ZEAMX (Corn, Field); rate 0.0320 kg/ha
  Postemergence herbicidal rating, ZEAMX: 5.0
ZEAMX (Corn, Field); rate 0.0620 kg/ha
  Postemergence herbicidal rating, ZEAMX: 6.0
ZEAMX (Corn, Field); rate 0.1250 kg/ha
  Postemergence herbicidal rating, ZEAMX: 7.5
[8]; Rate 0.0620 kg/ha
  ECHCG preemergence herbicidal rating: 0.0
[8]; Rate 0.1250 kg/ha
  ECHCG preemergence herbicidal rating: 3.0
[8]; Rate 0.2500 kg/ha
  ECHCG preemergence herbicidal rating: 3.0
SETVI (Setaria viridis); Rate 0.0620 kg/ha
  SETVI preemergence herbicidal rating: 9.0
SETVI (Setaria viridis); Rate 0.1250 kg/ha
  SETVI preemergence herbicidal rating: 9.0
SETVI (Setaria viridis); Rate 0.2500 kg/ha
  SETVI preemergence herbicidal rating: 9.0
ORYSAT (Rice, Tebonnet) [9]; Rate 0.0620 kg/ha
  ORYSAT preemergence herbicidal rating: 0.0
ORYSAT (Rice, Tebonnet) [9]; Rate 0.1250 kg/ha
  ORYSAT preemergence herbicidal rating: 0.0
ORYSAT (Rice, Tebonnet) [9]; Rate 0.2500 kg/ha
  ORYSAT preemergence herbicidal rating: 0.0
[10]; Rate 0.0620 kg/ha
  TRZAWR preemergence herbicidal rating: 0.0
[10]; Rate 0.1250 kg/ha
  TRZAWR preemergence herbicidal rating: 2.0
[10]; Rate 0.2500 kg/ha
  TRZAWR preemergence herbicidal rating: 2.0

## C[C@@H]1OC(c2nsc3ccc(-n4c(=O)cc(C(F)(F)F)n(C)c4=O)cc23)O[C@@H]1C (stereo partly drawn) [Compound 47, 3-[3-[(4R,5S)-4,5-dimethyl-1,3-dioxolan-2-yl]-1,2-benzisothiazol-5-yl]-1-methyl-6-(trifluoromethyl)uracil]
[1]; rate 0.0320 kg/ha
  Postemergence herbicidal rating, ABUTH: 9.0
[1]; rate 0.0620 kg/ha
  Postemergence herbicidal rating, ABUTH: 9.0
[2]; rate 0.0320 kg/ha
  Postemergence herbicidal rating, AMBEL: 9.0
[2]; rate 0.0620 kg/ha
  Postemergence herbicidal rating, AMBEL: 9.0
[3]; rate 0.0320 kg/ha
  Postemergence herbicidal rating, CASOB: 6.0
[3]; rate 0.0620 kg/ha
  Postemergence herbicidal rating, CASOB: 9.0
[4]; rate 0.0320 kg/ha
  Postemergence herbicidal rating, CHEAL: 9.0
[4]; rate 0.0620 kg/ha
  Postemergence herbicidal rating, CHEAL: 9.0
GALAP (Galium aparine); rate 0.0320 kg/ha
  Postemergence herbicidal rating, GALAP: 9.0
GALAP (Galium aparine); rate 0.0620 kg/ha
  Postemergence herbicidal rating, GALAP: 9.0
[5]; rate 0.0320 kg/ha
  Postemergence herbicidal rating, IPOHE: 9.0
[5]; rate 0.0620 kg/ha
  Postemergence herbicidal rating, IPOHE: 9.0
[6]; rate 0.0320 kg/ha
  Postemergence herbicidal rating, GLXMAW: 7.5
[6]; rate 0.0620 kg/ha
  Postemergence herbicidal rating, GLXMAW: 8.5
ORYSAT (Rice, Tebonnet) [7]; rate 0.0320 kg/ha
  Postemergence herbicidal rating, ORYSAT: 4.0
ORYSAT (Rice, Tebonnet) [7]; rate 0.0620 kg/ha
  Postemergence herbicidal rating, ORYSAT: 6.5
ZEAMX (Corn, Field); rate 0.0320 kg/ha
  Postemergence herbicidal rating, ZEAMX: 3.5
ZEAMX (Corn, Field); rate 0.0620 kg/ha
  Postemergence herbicidal rating, ZEAMX: 4.0
[8]; Rate 0.0620 kg/ha
  Preemergence herbicidal rating ECHCG: 9.0
[8]; Rate 0.1250 kg/ha
  Preemergence herbicidal rating ECHCG: 9.0
[8]; Rate 0.2500 kg/ha
  Preemergence herbicidal rating ECHCG: 9.0
SETVI (Setaria viridis); Rate 0.0620 kg/ha
  Preemergence herbicidal rating SETVI: 9.0
SETVI (Setaria viridis); Rate 0.1250 kg/ha
  Preemergence herbicidal rating SETVI: 8.5
SETVI (Setaria viridis); Rate 0.2500 kg/ha
  Preemergence herbicidal rating SETVI: 9.0
ORYSAT (Rice, Tebonnet) [9]; Rate 0.0620 kg/ha
  Preemergence herbicidal rating ORYSAT: 7.5
ORYSAT (Rice, Tebonnet) [9]; Rate 0.1250 kg/ha
  Preemergence herbicidal rating ORYSAT: 7.5
ORYSAT (Rice, Tebonnet) [9]; Rate 0.2500 kg/ha
  Preemergence herbicidal rating ORYSAT: 9.0
[10]; Rate 0.0620 kg/ha
  Preemergence herbicidal rating TRZAWR: 6.0
[10]; Rate 0.1250 kg/ha
  Preemergence herbicidal rating TRZAWR: 8.0
[10]; Rate 0.2500 kg/ha
  Preemergence herbicidal rating TRZAWR: 8.0

## C[C@H]1OC(c2nsc3ccc(-n4c(=O)cc(C(F)(F)F)n(C)c4=O)cc23)O[C@@H]1C [Compound 48, 3-[3-[(4R,5R)-4,5-dimethyl-1,3-dioxolan-2-yl]-1,2-benzisothiazol-5-yl]-1-methyl-6-(trifluoromethyl)uracil]
[1]; rate 0.0320 kg/ha
  Postemergence herbicidal rating, ABUTH: 9.0
[1]; rate 0.0620 kg/ha
  Postemergence herbicidal rating, ABUTH: 9.0
[2]; rate 0.0320 kg/ha
  Postemergence herbicidal rating, AMBEL: 9.0
[2]; rate 0.0620 kg/ha
  Postemergence herbicidal rating, AMBEL: 9.0
[3]; rate 0.0320 kg/ha
  Postemergence herbicidal rating, CASOB: 1.0
[3]; rate 0.0620 kg/ha
  Postemergence herbicidal rating, CASOB: 7.0
[4]; rate 0.0320 kg/ha
  Postemergence herbicidal rating, CHEAL: 9.0
[4]; rate 0.0620 kg/ha
  Postemergence herbicidal rating, CHEAL: 9.0
GALAP (Galium aparine); rate 0.0320 kg/ha
  Postemergence herbicidal rating, GALAP: 9.0
GALAP (Galium aparine); rate 0.0620 kg/ha
  Postemergence herbicidal rating, GALAP: 9.0
[5]; rate 0.0320 kg/ha
  Postemergence herbicidal rating, IPOHE: 9.0
[5]; rate 0.0620 kg/ha
  Postemergence herbicidal rating, IPOHE: 9.0
[6]; rate 0.0320 kg/ha
  Postemergence herbicidal rating, GLXMAW: 8.0
[6]; rate 0.0620 kg/ha
  Postemergence herbicidal rating, GLXMAW: 8.7
ORYSAT (Rice, Tebonnet) [7]; rate 0.0320 kg/ha
  Postemergence herbicidal rating, ORYSAT: 5.5
ORYSAT (Rice, Tebonnet) [7]; rate 0.0620 kg/ha
  Postemergence herbicidal rating, ORYSAT: 6.0
ZEAMX (Corn, Field); rate 0.0320 kg/ha
  Postemergence herbicidal rating, ZEAMX: 4.5
ZEAMX (Corn, Field); rate 0.0620 kg/ha
  Postemergence herbicidal rating, ZEAMX: 5.7
[8]; Rate 0.0620 kg/ha
  Preemergence herbicidal rating ECHCG: 9.0
[8]; Rate 0.1250 kg/ha
  Preemergence herbicidal rating ECHCG: 9.0
[8]; Rate 0.2500 kg/ha
  Preemergence herbicidal rating ECHCG: 9.0
SETVI (Setaria viridis); Rate 0.0620 kg/ha
  Preemergence herbicidal rating SETVI: 9.0
SETVI (Setaria viridis); Rate 0.1250 kg/ha
  Preemergence herbicidal rating SETVI: 9.0
SETVI (Setaria viridis); Rate 0.2500 kg/ha
  Preemergence herbicidal rating SETVI: 9.0
ORYSAT (Rice, Tebonnet) [9]; Rate 0.0620 kg/ha
  Preemergence herbicidal rating ORYSAT: 7.5
ORYSAT (Rice, Tebonnet) [9]; Rate 0.1250 kg/ha
  Preemergence herbicidal rating ORYSAT: 8.0
ORYSAT (Rice, Tebonnet) [9]; Rate 0.2500 kg/ha
  Preemergence herbicidal rating ORYSAT: 9.0
[10]; Rate 0.0620 kg/ha
  Preemergence herbicidal rating TRZAWR: 6.0
[10]; Rate 0.1250 kg/ha
  Preemergence herbicidal rating TRZAWR: 8.0
[10]; Rate 0.2500 kg/ha
  Preemergence herbicidal rating TRZAWR: 8.0
